Experimental data taken from PubChem BioAssay (NCI).
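Five concentrations, 48 hours, 96-well plates. TGI: total growth inhibition.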

Columns and labels:
Experiment in all cases: NCI anticancer screen, dose series, 48 h
LXFL 529 NSCLC = system: LXFL 529 NSCLC
U251 CNS = system: U251 CNS
M14 melanoma = system: M14 melanoma
CAKI-1 renal = system: CAKI-1 renal
HOP-92 NSCLC = system: HOP-92 NSCLC
NCI-H460 lung = system: NCI-H460 lung
SK-OV-3 ovarian = system: SK-OV-3 ovarian
SF-295 CNS = system: SF-295 CNS
HT29 colon = system: HT29 colon
SK-MEL-2 melanoma = system: SK-MEL-2 melanoma
HCT-116 colon = system: HCT-116 colon
MOLT-4 leukemia = system: MOLT-4 leukemia
SNB-78 CNS = system: SNB-78 CNS
UACC-257 melanoma = system: UACC-257 melanoma
SF-268 CNS = system: SF-268 CNS
K-562 leukemia = system: K-562 leukemia
NCI-H23 lung = system: NCI-H23 lung
SK-MEL-28 melanoma = system: SK-MEL-28 melanoma
TK-10 renal = system: TK-10 renal
NCI-H226 lung = system: NCI-H226 lung
UACC-62 melanoma = system: UACC-62 melanoma
OVCAR-8 ovarian = system: OVCAR-8 ovarian
RPMI-8226 leukemia = system: RPMI-8226 leukemia
OVCAR-4 ovarian = system: OVCAR-4 ovarian
SNB-19 CNS = system: SNB-19 CNS
SF-539 CNS = system: SF-539 CNS
SN12C renal = system: SN12C renal
OVCAR-5 ovarian = system: OVCAR-5 ovarian
DLD-1 colon = system: DLD-1 colon
SR leukemia = system: SR leukemia
UO-31 renal = system: UO-31 renal
COLO 205 colon = system: COLO 205 colon
LOX IMVI melanoma = system: LOX IMVI melanoma
IGROV1 ovarian = system: IGROV1 ovarian
ACHN renal = system: ACHN renal
HL-60(TB) leukemia = system: HL-60(TB) leukemia
HOP-18 NSCLC = system: HOP-18 NSCLC
OVCAR-3 ovarian = system: OVCAR-3 ovarian
KM12 colon = system: KM12 colon
A498 renal = system: A498 renal
A549 NSCLC = system: A549 NSCLC
DMS 114 small cell lung = system: DMS 114 small cell lung
KM20L2 colon = system: KM20L2 colon
SW-620 colon = system: SW-620 colon
NCI-H522 lung = system: NCI-H522 lung
HOP-62 NSCLC = system: HOP-62 NSCLC
CCRF-CEM leukemia = system: CCRF-CEM leukemia
786-0 renal = system: 786-0 renal
HCT-15 colon = system: HCT-15 colon
SK-MEL-5 melanoma = system: SK-MEL-5 melanoma
M19-MEL melanoma = system: M19-MEL melanoma
MALME-3M melanoma = system: MALME-3M melanoma
DMS 273 small cell lung = system: DMS 273 small cell lung
HCC-2998 colon = system: HCC-2998 colon

CCN(CC)CCNc1ccc2ncn3c4ccccc4c(=O)c1c23
TGI (LXFL 529 NSCLC): 18.3 µM | TGI (U251 CNS): 17.5 µM | TGI (M14 melanoma): 16.8 µM | TGI (CAKI-1 renal): 6.73 µM | TGI (HOP-92 NSCLC): 10.4 µM | TGI (NCI-H460 lung): 8.98 µM | TGI (SK-OV-3 ovarian): 14.3 µM | TGI (SF-295 CNS): 14.5 µM | TGI (HT29 colon): 11 µM | TGI (SK-MEL-2 melanoma): 16.3 µM | TGI (HCT-116 colon): 12.8 µM | TGI (MOLT-4 leukemia): > 100 µM | TGI (SNB-78 CNS): 18.9 µM | TGI (UACC-257 melanoma): 15.1 µM | TGI (SF-268 CNS): 18.7 µM | TGI (K-562 leukemia): > 100 µM | TGI (NCI-H23 lung): 19.8 µM | TGI (SK-MEL-28 melanoma): 16.4 µM | TGI (TK-10 renal): 79.9 µM | TGI (NCI-H226 lung): 7.67 µM | TGI (UACC-62 melanoma): 14.6 µM | TGI (OVCAR-8 ovarian): 13.3 µM | TGI (RPMI-8226 leukemia): > 100 µM | TGI (OVCAR-4 ovarian): 9.53 µM | TGI (SNB-19 CNS): 32 µM | TGI (SF-539 CNS): 18 µM | TGI (SN12C renal): > 100 µM | TGI (OVCAR-5 ovarian): 34.1 µM | TGI (DLD-1 colon): 18.9 µM | TGI (SR leukemia): > 100 µM | TGI (UO-31 renal): 12.2 µM | TGI (COLO 205 colon): 9.78 µM | TGI (LOX IMVI melanoma): 3.73 µM | TGI (IGROV1 ovarian): 15.7 µM | TGI (ACHN renal): 12.2 µM | TGI (HL-60(TB) leukemia): > 100 µM | TGI (HOP-18 NSCLC): 37.4 µM | TGI (OVCAR-3 ovarian): 49.7 µM | TGI (KM12 colon): 17.6 µM | TGI (A498 renal): 20.6 µM | TGI (A549 NSCLC): 10.2 µM | TGI (DMS 114 small cell lung): 17.5 µM | TGI (KM20L2 colon): 17.9 µM | TGI (SW-620 colon): 16 µM | TGI (NCI-H522 lung): 12.3 µM | TGI (HOP-62 NSCLC): 21.6 µM | TGI (CCRF-CEM leukemia): > 100 µM | TGI (786-0 renal): 15.4 µM | TGI (HCT-15 colon): 16 µM | TGI (SK-MEL-5 melanoma): 13.3 µM | TGI (M19-MEL melanoma): 13.9 µM | TGI (MALME-3M melanoma): 15.1 µM

O=C(O)CSc1ccc2[nH]c3ccccc3c(=O)c2c1
TGI (LXFL 529 NSCLC): > 100 µM | TGI (U251 CNS): > 100 µM | TGI (M14 melanoma): > 100 µM | TGI (CAKI-1 renal): > 100 µM | TGI (HOP-92 NSCLC): > 100 µM | TGI (NCI-H460 lung): > 100 µM | TGI (SK-OV-3 ovarian): > 100 µM | TGI (SF-295 CNS): > 100 µM | TGI (HT29 colon): > 100 µM | TGI (HCT-116 colon): > 100 µM | TGI (MOLT-4 leukemia): > 100 µM | TGI (UACC-257 melanoma): > 100 µM | TGI (SF-268 CNS): > 100 µM | TGI (K-562 leukemia): > 100 µM | TGI (DMS 273 small cell lung): > 100 µM | TGI (NCI-H23 lung): > 100 µM | TGI (HCC-2998 colon): > 100 µM | TGI (SK-MEL-28 melanoma): > 100 µM | TGI (TK-10 renal): > 100 µM | TGI (NCI-H226 lung): > 100 µM | TGI (UACC-62 melanoma): > 100 µM | TGI (OVCAR-8 ovarian): > 100 µM | TGI (RPMI-8226 leukemia): > 100 µM | TGI (OVCAR-4 ovarian): > 100 µM | TGI (SNB-19 CNS): > 100 µM | TGI (SN12C renal): > 100 µM | TGI (OVCAR-5 ovarian): > 100 µM | TGI (DLD-1 colon): > 100 µM | TGI (SR leukemia): > 100 µM | TGI (UO-31 renal): > 100 µM | TGI (COLO 205 colon): > 100 µM | TGI (LOX IMVI melanoma): > 100 µM | TGI (IGROV1 ovarian): > 100 µM | TGI (ACHN renal): > 100 µM | TGI (HL-60(TB) leukemia): > 100 µM | TGI (HOP-18 NSCLC): > 100 µM | TGI (OVCAR-3 ovarian): > 100 µM | TGI (A498 renal): > 100 µM | TGI (A549 NSCLC): > 100 µM | TGI (DMS 114 small cell lung): > 100 µM | TGI (KM20L2 colon): > 100 µM | TGI (SW-620 colon): > 100 µM | TGI (HOP-62 NSCLC): > 100 µM | TGI (CCRF-CEM leukemia): > 100 µM | TGI (786-0 renal): > 100 µM | TGI (HCT-15 colon): > 100 µM | TGI (SK-MEL-5 melanoma): > 100 µM | TGI (M19-MEL melanoma): > 100 µM | TGI (MALME-3M melanoma): > 100 µM
